Assay results published in patent publication US20110135634A1, “METHODS OF INHIBITING INFECTION BY DIVERSE SUBTYPES OF DRUG-RESISTANT HIV-1” (priority 2007, published 2011).

Columns and labels:
[1] = tested on: reporter viruses pseudotyped with HIV-1JR-FL envelope (U87-CD4-CCR5 cells); assay: microbe, parasite or virus in culture; format: cell-based; conditions: compound alone (data not shown)
[2] = single administration of TAK-652 solution, healthy male volunteers; cited from earlier work
[3] = in vivo; cited from earlier work
[4] = target: HIV-1 JR-FL gp120 (HIV-1 strain JR-FL); assay: cell-based or functional assay
[5] = target: HIV-1 SF162 gp120 (HIV-1 strain SF162) (UniProt P19550); assay: cell-based or functional assay
[6] = tested on: HIV-1; conditions: dose-dependent, treatment period of 10-14 days; cited from earlier work

For “RANTES: CC-chemokine, natural peptide ligand of CCR5”, the “inhibition of HIV-1 pseudovirus entry” value [1] was “Neither TAK-779 nor RANTES mediated consistent, high-level inhibition”.

In the case of `CCCCOCCOc1ccc(-c2ccc3c(c2)/C=C(/C(=O)Nc2ccc([S@@+]([O-])Cc4cncn4CCC)cc2)CCCN3CC(C)C)cc1.CS(=O)(=O)O` [TAK-652], the safety and tolerability [2] is listed as “safe and well tolerated” and the oral bioavailability [3] is listed as “orally bioavailable”.

In the case of “PRO 542 (CD4-IgG2) (from UniProt P01730 26-204; P01730 26-203) (Fc fusion)”, the IC50, HIV-1 reporter virus pseudotyped with JRFL envelope, U87-CD4-CCR5 cells [4] is reported as 0.19 nM, the IC90, HIV-1 reporter virus pseudotyped with JRFL envelope, U87-CD4-CCR5 cells [4] is reported as 2.9 nM and the IC50, HIV-1 reporter virus pseudotyped with SF162 envelope, U87-CD4-CCR5 cells [5] is reported as 0.36 nM. The IC90, HIV-1 reporter virus pseudotyped with SF162 envelope, U87-CD4-CCR5 cells [5] was 7.1 nM.

For `CCCCN1C(=O)[C@@H]([C@H](O)C2CCCCC2)NC(=O)C12CCN(Cc1ccc(Oc3ccc(C(=O)O)cc3)cc1)CC2` [GW873140], the “mean reductions in HIV-1 RNA levels” value [6] is listed as roughly 1 log10.

In the case of `CCO/N=C(\c1ccc(Br)cc1)C1CCN(C2(C)CCN(C(=O)c3c(C)cc[n+]([O-])c3C)CC2)CC1` [SCH-C], the “mean reductions in HIV-1 RNA levels” value [6] is given as roughly 1 log10.
